Laboratory results reported in patent US3940382A, “1,2'-Di-N-substituted kanamycin B compounds” (Zaidan Hojin Biseibutsu Kagaku Kenkyu Kai, priority 1973, dated 1976).
In brackets after ≈: the same amount, converted by molar mass. Where two headings read alike, the source gives them in different places.

Legend:
Format in all cases: cell-based
Proteus vulgaris OX 19 = assay: MIC, serial dilution on nutrient agar; details: read-out: Minimum Inhibitory Concentrations
[1] = test system: Staphylococcus aureus FDA 209P; assay: MIC, serial dilution on nutrient agar; details: FDA209P, read-out: Minimum Inhibitory Concentrations
[2] = test system: Shigella flexneri 4b JS 11811; assay: MIC, serial dilution on nutrient agar; details: 4BJS11811, 37°C, 18 hours, read-out: Minimum Inhibitory Concentrations
Method: (§1) The minimum inhibitory concentrations (mcg/ml) of 1,2'-di-N-[(S)-4-amino-2-hydroxybutyryl]-kanamycin B (abbreviated as 1,2'-AHB-KMB), 1,2'-di-N-[(S)-4-amino-2-hydroxybutyryl]-3',4'-dideoxykanamycin B (abbreviated as 1,2'-AHB-DKB), 1,2'-di-N-DL-isoseryl-3',4'-dideoxykanamycin B (abbreviated as 1,2'-IS-DKB) and 1,2'-di-N-DL-isoseryl-kanamycin B (abbreviated as 1,2'-IS-KMB) against various microorganisms were determined according to serial dilution method using nutrient agar medium at 37°C, the estimation being effected after 18 hours incubation. For comparison, the minimum inhibitory concentrations of kanamycin B (abbreviated as KMB) and 3',4'-dideoxykanamycin B (abbreviated as DKB) were also determined in the same manner as mentioned above.

[3] = test system: Escherichia coli K-12 ML 1630; assay: MIC, serial dilution on nutrient agar; details: K12ML1630, 37°C, 18 hours, read-out: Minimum Inhibitory Concentrations
Method: as §1

Shigella sonnei JS 11746 = assay: MIC, serial dilution on nutrient agar; details: JS11746, 37°C, 18 hours, read-out: Minimum Inhibitory Concentrations
Method: as §1

[4] = test system: Pseudomonas aeruginosa 99; assay: MIC, serial dilution on nutrient agar; details: Pseudomonas aeruginosa 99; nutrient agar, 37°C, 18 hours; read-out: Minimum Inhibitory Concentrations
Salmonella typhosa T-63 = assay: MIC, serial dilution on nutrient agar; details: Salmonella enterica, 18 h, read-out: Minimum Inhibitory Concentrations
[5] = test system: Bacillus subtilis NRRL B-558; assay: MIC, serial dilution on nutrient agar; details: NRRLB558; Bacillus subtilis NRRL B-558; nutrient agar, 37°C, 18 hours; read-out: Minimum Inhibitory Concentrations
[6] = test system: Corynebacterium bovis 1810; assay: MIC, serial dilution on nutrient agar; details: read-out: Minimum Inhibitory Concentrations
[7] = test system: Mycobacterium smegmatis ATCC 607; assay: MIC, serial dilution on nutrient agar; details: Mycolicibacterium smegmatis, ATCC607; Mycobacterium smegmatis ATCC 607; nutrient agar, 37°C, 18 hours; read-out: Minimum Inhibitory Concentrations
[8] = test system: Escherichia coli LA290 R56; assay: MIC, serial dilution on nutrient agar; details: LA290R56, 18 h, read-out: Minimum Inhibitory Concentrations
[9] = test system: Staphylococcus aureus Smith; assay: MIC, serial dilution on nutrient agar; details: Staphylococcus aureus Smith; nutrient agar, 37°C, 18 hours; read-out: Minimum Inhibitory Concentrations
[10] = test system: Pseudomonas aeruginosa A3; assay: MIC, serial dilution on nutrient agar; details: read-out: Minimum Inhibitory Concentrations
[11] = test system: Pseudomonas aeruginosa No.12; assay: MIC, serial dilution on nutrient agar; details: read-out: Minimum Inhibitory Concentrations
[12] = test system: Klebsiella pneumoniae PCI 602; assay: MIC, serial dilution on nutrient agar; details: read-out: Minimum Inhibitory Concentrations
[13] = test system: Pseudomonas aeruginosa GN315; assay: MIC, serial dilution on nutrient agar; details: Pseudomonas aeruginosa GN315; nutrient agar, 37°C, 18 hours; read-out: Minimum Inhibitory Concentrations
[14] = test system: Bacillus subtilis PCI 219; assay: MIC, serial dilution on nutrient agar; details: PCI219; Bacillus subtilis PCI 219; nutrient agar, 37°C, 18 hours; read-out: Minimum Inhibitory Concentrations
[15] = test system: Bacillus cereus ATCC 10702; assay: MIC, serial dilution on nutrient agar; details: read-out: Minimum Inhibitory Concentrations
[16] = test system: Klebsiella pneumoniae 22 -3038; assay: MIC, serial dilution on nutrient agar; details: read-out: Minimum Inhibitory Concentrations
[17] = test system: Escherichia coli K-12 ML 1629; assay: MIC, serial dilution on nutrient agar; details: read-out: Minimum Inhibitory Concentrations
[18] = test system: Shigella dysenteriae JS 11910; assay: MIC, serial dilution on nutrient agar; details: JS11910, 18 h, read-out: Minimum Inhibitory Concentrations
[19] = test system: Escherichia coli LA290 R55; assay: MIC, serial dilution on nutrient agar; details: LA290R55, 18 h, read-out: Minimum Inhibitory Concentrations
Sarcina lutea PCI 1001 = assay: MIC, serial dilution on nutrient agar; details: Micrococcus luteus, read-out: Minimum Inhibitory Concentrations
Escherichia coli W677 = assay: MIC, serial dilution on nutrient agar; details: Escherichia coli W677; nutrient agar, 37°C, 18 hours; read-out: Minimum Inhibitory Concentrations
[20] = test system: Escherichia coli LA290 R64; assay: MIC, serial dilution on nutrient agar; details: LA290R64, 18 h, read-out: Minimum Inhibitory Concentrations
[21] = test system: Escherichia coli K-12 ML 1410 R81; assay: MIC, serial dilution on nutrient agar; details: 18 h, read-out: Minimum Inhibitory Concentrations
Escherichia coli K-12 = assay: MIC, serial dilution on nutrient agar; details: read-out: Minimum Inhibitory Concentrations
[22] = test system: Salmonella enteritidis 1891; assay: MIC, serial dilution on nutrient agar; details: Salmonella enterica, read-out: Minimum Inhibitory Concentrations
[23] = test system: Staphylococcus aureus Terejima; assay: MIC, serial dilution on nutrient agar; details: Staphylococcus aureus Terejima; nutrient agar, 37°C, 18 hours; read-out: Minimum Inhibitory Concentrations
[24] = test system: Escherichia coli K-12 ML 1410; assay: MIC, serial dilution on nutrient agar; details: read-out: Minimum Inhibitory Concentrations
[25] = test system: Pseudomonas aeruginosa TI-13; assay: MIC, serial dilution on nutrient agar; details: TI13; Pseudomonas aeruginosa TI-13; nutrient agar, 37°C, 18 hours; read-out: Minimum Inhibitory Concentrations
Escherichia coli NIHJ = assay: MIC, serial dilution on nutrient agar; details: read-out: Minimum Inhibitory Concentrations
[26] = test system: Escherichia coli JR66/W677; assay: MIC, serial dilution on nutrient agar; details: Escherichia coli, JR66/W677, 18 h, read-out: Minimum Inhibitory Concentrations
Bacillus anthracis = assay: microbe, parasite or virus in culture; details: 18 h, read-out: Minimum Inhibitory Concentrations

Structure (SMILES) | MIC [2] | MIC [3] | MIC (Shigella sonnei JS 11746) | MIC [4] | MIC (Salmonella typhosa T-63) | MIC [5] | MIC [7] | MIC [8] | MIC [9] | MIC [13] | MIC [14] | MIC [18] | MIC [19] | MIC (Escherichia coli W677) | MIC [20] | MIC [21] | MIC [23] | MIC [25] | MIC [26] | MIC (Bacillus anthracis) | other results
NCC[C@H](O)C(=O)N[C@H]1[C@@H](O[C@H]2[C@H](O)[C@@H](O[C@H]3O[C@H](CO)[C@@H](O)[C@H](N)[C@H]3O)[C@H](NC(=O)[C@@H](O)CCN)C[C@@H]2N)O[C@H](CN)[C@@H](O)[C@@H]1O [1,2'-AHB-KMB, 1,2'-di-N-[(S)-4-amino-2-hydroxybutyryl]-kanamycin B] | 12.5 µg/mL (≈ 18.2 µM) | 3.13 µg/mL (≈ 4.56 µM) | 6.25 µg/mL (≈ 9.11 µM) | 50 µg/mL (≈ 72.9 µM) | 3.13 µg/mL (≈ 4.56 µM) | 0.78 µg/mL (≈ 1.14 µM) | 0.78 µg/mL (≈ 1.14 µM) | 1.56 µg/mL (≈ 2.27 µM) | 0.39 µg/mL (≈ 0.569 µM) | > 100 µg/mL | < 0.2 µg/mL | 12.5 µg/mL (≈ 18.2 µM) | 3.13 µg/mL (≈ 4.56 µM) | 1.56 µg/mL (≈ 2.27 µM) | 1.56 µg/mL (≈ 2.27 µM) | 6.25 µg/mL (≈ 9.11 µM) | < 0.2 µg/mL | 25 µg/mL (≈ 36.5 µM) | 6.25 µg/mL (≈ 9.11 µM) | 0.39 µg/mL (≈ 0.569 µM) | MIC (Proteus vulgaris OX 19; Proteus vulgaris, OX19, 18 h): 3.13 µg/mL (≈ 4.56 µM); MIC ([1]; Staphylococcus aureus, 18 h): 6.25 µg/mL (≈ 9.11 µM); MIC ([6]; Corynebacterium bovis, 1810, 18 h): 3.13 µg/mL (≈ 4.56 µM); MIC ([10]; Pseudomonas aeruginosa, A3, 18 h): 12.5 µg/mL (≈ 18.2 µM); MIC ([11]; Pseudomonas aeruginosa No.12, nutrient agar, 37°C, 18 hours): 25 µg/mL (≈ 36.5 µM); MIC ([12]; Klebsiella pneumoniae, PCI602, 18 h): 3.13 µg/mL (≈ 4.56 µM); MIC ([15]; Bacillus cereus, ATCC10702, 18 h): 12.5 µg/mL (≈ 18.2 µM); MIC ([16]; Klebsiella pneumoniae, 223038, 18 h): 3.13 µg/mL (≈ 4.56 µM); MIC ([17]; Escherichia coli, K12ML1629, 18 h): 3.13 µg/mL (≈ 4.56 µM); MIC (Sarcina lutea PCI 1001; PCI1001, 18 h): 6.25 µg/mL (≈ 9.11 µM); MIC (Escherichia coli K-12; Escherichia coli, K12, 18 h): 3.13 µg/mL (≈ 4.56 µM); MIC ([22]; ENTERITIDIS, 18 h): 3.13 µg/mL (≈ 4.56 µM); MIC ([24]; Escherichia coli, K12ML1410, 18 h): 3.13 µg/mL (≈ 4.56 µM); MIC (Escherichia coli NIHJ; Escherichia coli, 18 h): 6.25 µg/mL (≈ 9.11 µM)
NCC[C@H](O)C(=O)N[C@@H]1CC[C@@H](CN)O[C@@H]1O[C@H]1[C@H](O)[C@@H](O[C@H]2O[C@H](CO)[C@@H](O)[C@H](N)[C@H]2O)[C@H](NC(=O)[C@@H](O)CCN)C[C@@H]1N [1,2'-AHB-DKB, 1,2'-di-N-[(S)-4-amino-2-hydroxybutyryl]-3',4'-dideoxykanamycin B] | 6.25 µg/mL (≈ 9.56 µM) | 3.13 µg/mL (≈ 4.79 µM) | 6.25 µg/mL (≈ 9.56 µM) | 50 µg/mL (≈ 76.5 µM) | 0.78 µg/mL (≈ 1.19 µM) | 0.2 µg/mL (≈ 0.306 µM) | 0.2 µg/mL (≈ 0.306 µM) | 0.78 µg/mL (≈ 1.19 µM) | 0.2 µg/mL (≈ 0.306 µM) | 100 µg/mL (≈ 153 µM) | < 0.2 µg/mL | 6.25 µg/mL (≈ 9.56 µM) | 0.78 µg/mL (≈ 1.19 µM) | 1.56 µg/mL (≈ 2.39 µM) | 0.78 µg/mL (≈ 1.19 µM) | 1.56 µg/mL (≈ 2.39 µM) | < 0.2 µg/mL | 12.5 µg/mL (≈ 19.1 µM) | 6.25 µg/mL (≈ 9.56 µM) | < 0.2 µg/mL | MIC (Proteus vulgaris OX 19; OX19, Proteus vulgaris OX 19, nutrient agar, 37°C, 18 hours): 0.78 µg/mL (≈ 1.19 µM); MIC ([1]; Staphylococcus aureus FDA 209P, nutrient agar, 37°C, 18 hours): 0.78 µg/mL (≈ 1.19 µM); MIC ([6]; Corynebacterium bovis 1810, nutrient agar, 37°C, 18 hours): 0.78 µg/mL (≈ 1.19 µM); MIC ([10]; Pseudomonas aeruginosa A3, nutrient agar, 37°C, 18 hours): 25 µg/mL (≈ 38.2 µM); MIC ([11]; Pseudomonas aeruginosa, NO.12, 18 h): 6.25 µg/mL (≈ 9.56 µM); MIC ([12]; PCI602, Klebsiella pneumoniae PCI 602, nutrient agar, 37°C, 18 hours): 0.78 µg/mL (≈ 1.19 µM); MIC ([15]; ATCC10702, Bacillus cereus ATCC 10702, nutrient agar, 37°C, 18 hours): 1.56 µg/mL (≈ 2.39 µM); MIC ([16]; 223038, Klebsiella pneumoniae 22 -3038, nutrient agar, 37°C, 18 hours): 1.56 µg/mL (≈ 2.39 µM); MIC ([17]; K12ML1629, Escherichia coli K-12 ML 1629, nutrient agar, 37°C, 18 hours): 3.13 µg/mL (≈ 4.79 µM); MIC (Sarcina lutea PCI 1001; PCI1001, Sarcina lutea PCI 1001, nutrient agar, 37°C, 18 hours): 1.56 µg/mL (≈ 2.39 µM); MIC (Escherichia coli K-12; K12, Escherichia coli K-12, nutrient agar, 37°C, 18 hours): 1.56 µg/mL (≈ 2.39 µM); MIC ([22]; Salmonella enteritidis 1891, nutrient agar, 37°C, 18 hours): 1.56 µg/mL (≈ 2.39 µM); MIC ([24]; K12ML1410, Escherichia coli K-12 ML 1410, nutrient agar, 37°C, 18 hours): 3.13 µg/mL (≈ 4.79 µM); MIC (Escherichia coli NIHJ; Escherichia coli NIHJ, nutrient agar, 37°C, 18 hours): 3.13 µg/mL (≈ 4.79 µM)
